Data taken from publication PMC8996149 (Acta Crystallographica. Section F, Structural Biology …, 2022).
Values belong to the molecule of their own block, whether it stands above or below them.

Tests used:
[1] = biological target: T1, SALDAP (Alpine soil metagenome-derived salicylaldehyde dehydrogenase) (soil metagenome, UniProt Z9QUQ6R3A5); experiment: differential scanning fluorimetry (SYPRO Orange); assay type: binding; conditions: 2 mM ligand, 6 µM enzyme, 50 mM HEPES pH 7.4; no NAD+; untreated enzyme Tm 67.9 ± 0.17 °C
T1 construct: pLATE51, N-terminal 6xHis tag (no cleavage told), E. coli BL21 (DE3), purified; homodimer about 115 kDa; EC 1.2.1.65
From the text: differential scanning fluorimetry (SYPRO Orange) on SALDAP (Alpine soil metagenome-derived salicylaldehyde dehydrogenase)

[2] = biological target: T1, SALDAP (Alpine soil metagenome-derived salicylaldehyde dehydrogenase); experiment: X-ray crystal structure, […] Å; assay type: binding; conditions: active site, one ligand per monomer; ligand identity chosen by best fit to electron density (putative), no ligand added to the drop is told; pH 4.6
[3] = biological target: the molecule itself; experiment: SEC; analytical gel filtration on Sephacryl S-300 (K 9/30 column), 50 mM Tris-HCl, 17 mM Tris base, 150 mM NaCl pH 7.4, calibrated with standard proteins; mass estimated from the elution volume

- Melting temperature (T m) (°C) [1]: 69.2 ± 0.25 °C
Molecule: O=C(O)c1ccc(O)c(O)c1 [protocatechuic acid]
- X-ray crystal structure, 1.9 Å [2]: protocatechuic acid (PCA) was chosen as the ligand bound to the active site

B1: Alpine soil metagenome-derived salicylaldehyde dehydrogenase (SALDAP) (enzyme)
chain: MRGLTVNFERINPMTNQTASTAKAMTAAEARAVADRAAAGFAGWSVLGPNARRAVLMKAAAALEARKDDFVQAMMAEIGATAGWAMFNLMLAASMIREAAALTTQIGGEVIPSDKPGCLALALREPVGVVLGIAPWNAPIILGVRAIAVPLACGNAVILKASEICPRTHGLIIESFAEAGFPEGVVNVVTNAPQDAGEVVGALIDHPAVKRINFTGSTGVGRIIAKRAAEHLKPCLLELGGKAPLVVLDDADLDEAAKAAAFGAFMNQGQICMSTERIIVVEAIAAEFTRRFAAKAQSMATGDPREGKTPLGAVVDRKTVDHVNTLIDDATAKGARIIAGGKGDSVLMSATVVDGVTAAMKLYRDESFGPIVGIIRAKDEADAVRLANDSEYGLAAAVFTRDTARGLRVARQIRSGICHINGPTVHDEAQMPFGGVGASGYGRFGGKAGIDQFTELRWITMETQPGHFPI
notes: salicylaldehyde dehydrogenase SALDAP (EC 1.2.1.65) from an alphaproteobacterium, gene found by gene-targeted assembly in an Alpine soil metagenome; The pLATE51 vector adds the N-terminal 6×His tag; also called 6×His-SALDAP; 6×His SALDAP; not shown: 6×His, N-terminal, kept
- stoichiometry N [3]: 2
